Data published in US20230039836A1, “AROMATIC SULPHONAMIDES DERIVATIVES THAT INHIBITS PDI A3, THEIR SYNTHESIS AND USE” (Uniwersytet Jagiellonski, priority 2020, published 2023).

Legend:
[1] = biological target: T1, PDI A1 (Homo sapiens, UniProt P07237); experiment: Insulin turbidometric assay, inhibition of PDI A1; assay type: biochemical; conditions: insulin reduction, turbidity at 650 nm, 60 min incubation at 37° C.; read-out: Inhibition of PDI A1 (EC 50)
T1 construct: purchased Mybiosource; host or cells: E. coli
Procedure: The inhibitory effects compounds of invention on activity of PDI A1 was assess based on the insulin turbidometric assay. Enzymatic activity of PDIA1 was confirmed by measuring the turbidity increase at 650 nm due to insulin reduction. The assay mixture was prepared by addition 10 ug/ml PDIA1 (E.coli recombinant protein; Mybiosource), 0.1 mM phosphate buffer (pH7.6), 1 mM EDTA, 0.087 mM DTT and with or without tested compound and was incubated for 60 min, at 37° C. Reaction was started by addition insulin and DTT. Final concentration of insulin and DTT in assay mixture was 0.15 mM and 0.174 mM, respectively. Turbidity was detected at 650 nm against reference samples without PDI A1s. The measurements were performed at 650 nm using 120-s recordings.

[2] = tested on: Caco-2 (human colon adenocarcinoma); experiment: MTT antiproliferative assay, 48 h; assay type: cell-based; conditions: Homo sapiens, Caco-2, 48-hour exposition, read-out: Cytotoxicity, IC50, µM CaCo-2
Procedure: (§1) About 2000-4000 cells per well (depending on line nature) were placed in 96-well plates and after 24 h compounds were added to the wells. Untreated cells were used as a control. The plates were incubated for 48 h, 37° C., 5% CO2. The number of surviving cells was determined using 3-(4,5-dimethylthiazol-2-yl)-2,5-diphenyltetrazolinium bromide (MTT). MTT-test: after incubating culture medium was removed and 200 µL fresh medium with 20 µL MTT (2 mg/mL in HBSS) was added in each well of the plate. After incubation (3 hr., 37° C., 5% CO2), the medium with MTT was removed and 200 µL DMSO were added at once to each sample. The samples were tested at 540 nm on Thermo Scientific Multiskan EX microplate photometer. The half-maximal inhibitory concentration (IC50) of each compound was calculated using Graph Pad Prism® 3.0.

[3] = tested on: MDA-MB-231 (human mammary breast adenocarcinoma); experiment: MTT antiproliferative assay, 48 h; assay type: cell-based; conditions: Homo sapiens, MDA-MB-231, 48-hour exposition, read-out: Cytotoxicity, IC50, µM MDA-MB-231
Procedure: as §1

[4] = tested on: HT-1080 (human fibrosarcoma); experiment: MTT antiproliferative assay, 48 h; assay type: cell-based; conditions: 48-hour exposition, read-out: Cytotoxicity, IC50, µM HT-1080
Procedure: as §1

[5] = tested on: MCF-7 (human breast adenocarcinoma, estrogen-positive); experiment: MTT antiproliferative assay, 48 h; assay type: cell-based; conditions: Homo sapiens, MCF7, 48-hour exposition, read-out: Cytotoxicity, IC50, µM MCF-7
Procedure: as §1

[6] = tested on: Lewis Lung Carcinoma (LLC); experiment: Murine model of Lewis Lung Carcinoma; assay type: in vivo, mice; conditions: in vivo, FIG. 5; for Effect on animal weight: no evident toxicity
Procedure: To confirm anticancer activity of selected compounds of invention, PDI A1-inhibitors in vivo, selected compounds of invention were tested in the murine model of Lewis Lung Carcinoma (LLC). The Lewis Lung Carcinoma (LLC) cell line was obtained from the ATCC collection and was cultured in a humidified atmosphere of 5% CO2 at 37° using Dulbecco’s modified Eagle’s medium (DMEM) that contained 10% bovine serum (Sigma). Female (6-8 weeks old) C57BL/6 mice (purchased from Envigo RMS. BV., Nederland) were acclimated for one week and were fed with animal chow and water ad libitum. The C57BL/6 mice were injected s.c. with 0.5 × 10^5 LLC cells per mice in 100 µL PBS. Compounds were dissolved in DMSO and then 0.9% NaCl (DMSO final concentration 1%) were added. In each treatment group, i.p. injections of 100 µl compound were started on 1 day after tumor inoculation. Control animals injected with equal volume of 0.9% NaCl with 1% DMSO administered in the same schedule as other groups. Tumor larger radius (a) and smaller radius (b) were measured by calipers. The tumor volume (Tv) was calculated according the following formulaTv = V=4 • ab2/3. The mice in control group were sacrificed 17 days after tumor establishment. Tumor tissues were dissected, weighed and frozen in OCT compound.

T1 sequence (P07237 18-508, species assumed): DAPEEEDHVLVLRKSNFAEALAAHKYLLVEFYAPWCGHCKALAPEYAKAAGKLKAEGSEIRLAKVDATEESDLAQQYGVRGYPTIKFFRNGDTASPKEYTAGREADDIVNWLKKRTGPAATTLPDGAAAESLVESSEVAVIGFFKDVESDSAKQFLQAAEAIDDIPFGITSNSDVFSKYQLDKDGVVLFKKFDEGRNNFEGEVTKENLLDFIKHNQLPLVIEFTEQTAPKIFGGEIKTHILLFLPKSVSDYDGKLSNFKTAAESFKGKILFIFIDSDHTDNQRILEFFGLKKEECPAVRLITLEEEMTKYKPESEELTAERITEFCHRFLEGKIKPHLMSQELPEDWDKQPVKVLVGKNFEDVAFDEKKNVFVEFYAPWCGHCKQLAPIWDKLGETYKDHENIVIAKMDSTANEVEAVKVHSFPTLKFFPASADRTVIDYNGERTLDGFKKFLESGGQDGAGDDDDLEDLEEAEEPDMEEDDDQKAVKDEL

Structure (SMILES) | EC50 [1] [µM] | IC50 [2] [µM] | IC50 [3] [µM] | IC50 [5] [µM] | further results
CCCCCCCc1ccc(S(=O)(=O)N2CC2C(=O)OC)cc1 (stereo not drawn) [Compound C-3288, Methyl 1-(4-heptylphenyl)sulfonylaziridine-2-carboxylate] | 0.4 |  |  |  | 
CCCCOc1ccc(S(=O)(=O)N2CC2C(=O)OC)cc1 (stereo not drawn) [Compound C-3271, Methyl 1-(4-butoxyphenyl)sulfonylaziridine-2-carboxylate] | 1 |  |  |  | 
CCCCCCCCCCCCc1ccc(S(=O)(=O)N2CC2C(=O)OC)cc1 (stereo not drawn) [Compound C-3270, Methyl 1-(4-dodecylphenyl)sulfonylaziridine-2-carboxylate] | 0.8 |  |  |  | 
Cc1ccc(S(=O)(=O)N2CC2C=O)cc1 (stereo not drawn) [Compound C-3262, 1-(p-Tolylsulfonyl)aziridine-2-carbaldehyde] | 160 | 13.5 ± 0.8 | 6.8 ± 0.8 | 7.2 ± 0.8 | IC50 [4]: 3.8 ± 0.3 µM
COC(=O)C1CN1S(=O)(=O)c1ccc2cc(OC)ccc2c1 (stereo not drawn) [Compound C-3327, Methyl 1-[(6-methoxy-2-naphthyl)sulfonyl]aziridine-2-carboxylate] |  | 150 ± 10 |  |  | 
CCCCc1ccc(S(=O)(=O)N2CC2C(C)=O)cc1 (stereo not drawn) [Compound C-3272, 1-[1-(4-Butylphenyl)sulfonylaziridin-2-yl] ethanone] | 0.5 | 57 ± 6 | 8.4 ± 0.9 | 26 ± 0.4 | IC50 [4]: 4.5 ± 0.9 µM
COC(=O)C1CN1S(=O)(=O)c1ccc(C(F)(F)F)cc1 (stereo not drawn) [Compound C-3256, Methyl 1-[4-(trifluoromethyl)phenyl]sulfonylaziridine-2-carboxylate] | 0.5 |  |  |  | 
CCCCc1ccc(S(=O)(=O)N2CC2C=O)cc1 (stereo not drawn) [Compound C-3273, 1-(4-Butylphenyl)sulfonylaziridine-2-carbaldehyde] | 3 | 56 ± 12 | 35 ± 3 | 92 ± 2 | IC50 [4]: 31 ± 0.9 µM
CN(C)C(=O)C1CN1S(=O)(=O)c1cccc2cc(N(C)C)ccc12 (stereo not drawn) [Compound C-3377, 1-[[6-(Dimethylamino)-1-naphthyl]sulfonyl]-N,N-dimethylaziridine-2-carboxamide] |  |  |  | 4.8 ± 0.1 | 
CCCCCc1ccc(S(=O)(=O)N2CC2C(=O)OC)cc1 (stereo not drawn) [Compound C-3281, Methyl 1-(4-pentylphenyl)sulfonylaziridine-2-carboxylate] |  |  |  |  | Effect on tumour volume [6]: diminished tumour volume; Effect on animal weight [6]: did not modified animal weight
COC(=O)C1CN1S(=O)(=O)c1ccc2cc(C)ccc2c1 (stereo not drawn) [Compound C-3329, Methyl 1-[(6-methyl-2-naphthyl)sulfonyl]aziridine-2-carboxylate] |  |  |  |  | Effect on tumour volume [6]: diminished tumour volume; Effect on animal weight [6]: did not modified animal weight
CN(C)C(=O)C1CN1S(=O)(=O)c1ccc(N(C)C)cc1 (stereo not drawn) [Compound C-3357, 1-[4-(Dimethylamino)phenyl] sulfonyl-N,N-dimethyl-aziridine-2-carboxamide] |  | 61 ± 3 | 25 ± 6 | 295 ± 9 | IC50 [4]: 30 ± 1 µM
COC(=O)C1CN1S(=O)(=O)c1ccccc1C (stereo not drawn) [Compound C-3320, Methyl 1-(o-tolylsulfonyl)aziridine-2-carboxylate] |  |  | 380 ± 15 |  | 
NC(=O)C1CN1S(=O)(=O)c1ccc(C(F)(F)F)cc1 (stereo not drawn) [Compound C-3324, 1-[4-(Trifluoromethyl)phenyl] sulfonylaziridine-2-carboxamide] |  | 27 ± 3 | 102 ± 12 | 156 ± 9 | IC50 [4]: 510 ± 3 µM
COC(=O)C1CN1S(=O)(=O)c1ccc2cc(N(C)C)ccc2c1 (stereo not drawn) [Compound C-3397, Methyl 1-[[6-(dimethylamino)-2-naphthyl]sulfonyl]aziridine-2-carboxylate] |  |  | 38 ± 2 |  | 
Cc1ccc(S(=O)(=O)N2CC2C(N)=O)cc1 (stereo not drawn) [Compound C-3220, 1-(p-Tolylsulfonyl)aziridine-2-carboxamide] | > 200 |  |  |  | 
CCCCCCc1ccc(S(=O)(=O)N2CC2C(=O)N2CCOCC2)cc1 (stereo not drawn) [Compound C-3517, [1-(4-Hexylphenyl)sulfonylaziridin-2-yl]-morpholino-methanone] |  |  | 12 ± 1 |  | 

Second part, led by results:

EC50 [1] [µM] | Structure (SMILES) | IC50 [2] [µM] | IC50 [3] [µM] | IC50 [5] [µM] | further results
11 | CC(C)(C)c1ccc(S(=O)(=O)N2CC2C(N)=O)cc1 (stereo not drawn) [Compound C-3591, 1-(4-tert-Butylphenyl)sulfonylaziridine-2-carboxamide] |  |  |  | 
11 | COC(=O)[C@H]1CN1S(=O)(=O)c1cccc2cc(N(C)C)ccc12 (stereo partly drawn) [Compound C-3570, Methyl (2R)-1-[[6-(dimethylamino)-1-naphthyl]sulfonyl]aziridine-2-carboxylate] | 13 ± 1 | 14 ± 3 | 29 ± 2 | IC50 [4]: 12 ± 1 µM
0.7 | CN(C)C(=O)C1CN1S(=O)(=O)c1ccc(N(C)C)c2ccccc12 (stereo not drawn) [Compound C-3385, 1-[[4-(Dimethylamino)-1-naphthyl]sulfonyl] -N,N-dimethylaziridine-2-carboxamide] |  |  |  | 
54.4 | Cc1ccc(S(=O)(=O)N2CC2C(=O)O)cc1 (stereo not drawn) [Compound C-3612, Lithium 1-tosylaziridine-2-carboxylate] |  |  |  | 
0.4 | COC(=O)C1CN1S(=O)(=O)c1ccc(-c2ccccc2)cc1 (stereo not drawn) [Compound C-3291, Methyl 1-(4-phenylphenyl)sulfonylaziridine-2-carboxylate] |  |  |  | 
18 | COC(=O)C1CN1S(=O)(=O)c1ccc(NC(C)=O)cc1 (stereo not drawn) [Compound C-3308, Methyl 1-(4-acetamidophenyl)sulfonylaziridine-2-carboaylate] | 100 ± 5 | > 500 | 485 ± 32 | IC50 [4]: 120 ± 6 µM
> 200 | COC(=O)C1CN1S(=O)(=O)c1ccco1 (stereo not drawn) [Compound C-3346, Methyl 1-(2-furylsulfonyl)aziridine-2-carboxylate] | 17 ± 2 | > 200 | 458 ± 6 | IC50 [4]: 169 ± 11 µM
0.5 | CCCCc1ccc(S(=O)(=O)N2CC2C(=O)N(C)C)cc1 (stereo not drawn) [Compound C-3362, 1-(4-Butylphenyl)sulfonyl-N,N-dimethyl-aziridine-2-carboxamide] |  |  |  | 
29 | COC(=O)[C@H]1CN1S(=O)(=O)c1ccc(C)cc1 (stereo partly drawn) [Compound C-3539, Methyl (2R)-1-(p-tolylsulfonyl)aziridine-2-carboxylate] | 23 ± 1 | 40 ± 5 | 113 ± 6 | IC50 [4]: 20 ± 1 µM
26 | CN(C)C(=O)C1CN1S(=O)(=O)c1ccc(C(C)(C)C)cc1 (stereo not drawn) [Compound C-3594, 1-(4-tert-Butylphenyl)sulfonyl-N,N-dimethyl-aziridine-2-carboxamide] |  |  |  | 
0.4 | COC(=O)C1CN1S(=O)(=O)c1ccc(C(C)(C)C)cc1 (stereo not drawn) [Compound C-3290, Methyl 1-(4-tert-butylphenyl)sulfonylaziridine-2-carboxylate] |  |  | 29 ± 4 | 
0.8 | CCCc1ccc(S(=O)(=O)N2CC2C(=O)OC)cc1 (stereo not drawn) [Compound C-3299, Methyl 1-(4-propylphenyl)sulfonylaziridine-2-carboxylate] |  |  |  | 
0.04 | CCCCCCc1ccc(S(=O)(=O)N2CC2C(=O)N(C)C)cc1 (stereo not drawn) [Compound C-3369, 1-(4-Hexylphenyl)sulfonyl-N,N-dimethyl-aziridine-2-carboxamide] |  |  |  | 
5 | COC(=O)C1CN1S(=O)(=O)c1cccc2ccccc12 (stereo not drawn) [Compound C-3311, Methyl 1-(1-naphthylsulfonyl)aziridine-2-carboxylate] |  |  |  | 
12.3 | CN(C)C(=O)C1CN1S(=O)(=O)c1ccc(F)cc1F (stereo not drawn) [Compound C-3403, 1-(2,4-Difluorophenyl)sulfonyl-N,N-dimethyl-aziridine-2-carboxamide] |  |  |  | 
